Results: patent publication US6538035B2, “Use of tolterodine to treat asthma” (Pharmacia & Upjohn Company, priority 2000, dated 2003)

How the values were obtained:
asthma = experiment: treatment of a patient with asthma by inhalation, morning peak flow; assay type: in vivo, human; conditions: person
Protocol: A person with a history of asthma with a morning peak flow of less than 2 l/sec is treated with 2-(diisopropylamino)ethyl-1-phenylcyclopentanecarboxylate powder 0.1 mg every 8 hr continuously. Treatment improves the peak flow to 4-5 l/sec.
A person with a history of severe asthma with a morning peak flow of 5 l/sec is treated with tolterodine powder 6 mg once a day continuously. After a week of treatment the peak flow improves to 9 l/sec.
A person with a history of severe asthma with a morning peak flow of less than 3 l/sec is treated with tolterodine aerosol 2 mg three times daily continuously. After a week of treatment the peak flow improves to 6 l/sec.

chronic COPD = experiment: treatment of a patient with chronic COPD by inhalation; assay type: in vivo, human; conditions: person
Protocol: A person with a history of chronic COPD with FEV1 of 1.5 liters is treated with tolterodine aerosol 1 mg every 12 hr continuously for dyspnea. After two weeks of therapy dyspnea tolerance is improved.
A person with a history of chronic COPD with FEV1/FVC of 60% liters is treated with hydroxytolterodine aerosol 2 mg every 8 hr continuously for dyspnea. After a week of treatment the FEV1/FVC ratio improves to about 65%.

## CC(C)N(CCOC(=O)C1(c2ccccc2)CCCC1)C(C)C [2-(diisopropylamino)ethyl-1-phenylcyclopentanecarboxylate]
asthma; asthma, baseline morning peak flow less than 2 l/sec, powder 0.1 mg every 8 hr continuously
  peak flow: 4 to 5 L/s

## Cc1ccc(O)c([C@H](CCN(C(C)C)C(C)C)c2ccccc2)c1 [tolterodine, 2-[(1R)-3-(diisopropylamino)-1-phenylpropyl]-4-methylphenol]
Chronic COPD; FEV1 of 1.5 liters, aerosol 1 mg every 12 hr continuously, after two weeks of therapy
  dyspnea tolerance: improved
asthma; severe asthma, baseline morning peak flow 5 l/sec, powder 6 mg once a day continuously, after a week
  peak flow: 9 L/s
asthma; severe asthma, baseline morning peak flow less than 3 l/sec, aerosol 2 mg three times daily continuously, after a week
  peak flow: 6 L/s

## CC(C)N(CC[C@H](c1ccccc1)c1cc(CO)ccc1O)C(C)C [hydroxytolterodine, 2-[(1R)-3-(diisopropylamino)-1-phenylpropyl]-4-(hydroxymethyl)phenol]
Chronic COPD; baseline FEV1/FVC of 60%, aerosol 2 mg every 8 hr continuously, after a week of treatment
  FEV1/FVC ratio: about 65%
